Patent publication US8999937B2, “Glucocorticoid induced leucine zipper mimetics as therapeutic agents in multiple sclerosis” (Indiana University Research and Technology Corporation, priority 2011, dated 2015)
“Also recorded” adds a separate entry of the source.

Tests used:
[1] = system: CD4+ LNC from PLP primed SJL/J mice; assay: In vitro cytokine secretion (ELISA) by PLP139-151 restimulated CD4+ cells from primed SJL/J mice; type: cell-based, mouse; conditions: for IFN-γ secretion / IL-10 secretion / IL-12 secretion / IL-17 secretion: CD4+ LNC, PLP restimulated, 48 h; for IFN-γ secretion / IL-10 secretion / IL-12 secretion: vs untreated/control peptide; for IL-17 secretion: vs untreated/control-P; for cytokine secretion (INF-γ and IL-12p40) by in-vivo primed T cells: CD4+ splenocytes, PLP 40 μg/ml, 24 hrs, FIG. 5
Procedure: CD4+ splenocytes isolated 10 days post-immunization from SJL mice induced EAE were co-cultured with irradiated syngenic APC and restimulated with PLP (40 μg/ml) in the presence of complex of chariot peptide with rGILZ protein/dexamethasone/GILZ-P at indicated concentrations. Supernatants collected after 24 hrs were assessed for INF-γ and IL-12p40 by ELISA. *=p<0.05 when compared to cells +PLP.
Supernatants from separate CD4+LNC cultured similarly collected at 24 hrs and 48 hrs were stored at −20° C. The levels of cytokines, IL-10, IL-12, and interferon gamma (IFN-γ) were determined by ELISA, using OptEIA kits, according to the manufacturer's recommendations (BD PharMingen). Group comparisons were made by one way analysis of variance (ANOVA) followed by Tukey's post-hoc.
(§1) Supernatants collected at 24 and 48 h were assessed for specific cytokines using the OptEIA kits (BD Biosciences). Proliferation assays included parallel cultures for 72 h with a final 18-h pulse with [^3H]thymidine measured by liquid scintillation counting (Microbeta, Turku, Finland).

[2] = system: CD4+ splenocytes/LNC from R-EAE mice; assay: Ex vivo cytokine secretion (ELISA) by CD4+ cells from treated R-EAE mice; type: in vivo, mouse
Procedure: Data represent average±S.D. from two experiments (n=9/group). (C)-(H) show GILZ-peptide treatment suppresses Th1 cytokines in R-EAE. […] C, proliferative responses of CD4+ splenocytes are plotted as Δcpm±S.E. #, p<0.05 as compared with the responses of cells from vehicle-treated mice. Supernatant collected at 48 h from separate CD4+ splenocyte cultures were assessed for (D) IL-12, (E) IFN-γ, (F) IL-17, (G) IL-10, and (H) TGF-β by ELISA. * and # represent p<0.05 as compared with vehicle or control peptide-treated groups, respectively.
Supernatants collected 48 hrs later were assessed for cytokines using Opt EIA kits according to the manufacturer's recommendations (BD PharMingen). Differences between the groups in the mean clinical score and cytokine secretion were determined by a one-way ANOVA with Tukey's posthoc. Results were considered significant at p<0.05.
as §1

R-EAE in SJL/J mice = assay: Relapsing remitting EAE (R-EAE) in SJL/J mice, clinical score; type: in vivo, mouse
Procedure: Relapsing remitting EAE is induced in 8-10-week old female SJL/J mice. The mice were immunized with 100 μg of PLP139-151 in PBS emulsified 1:1 in complete Freund's adjuvant supplemented with 200 μg of Mycobacterium tuberculosis H37RA (Difco Laboratories, Detroit, Mich.) distributed over four sites on the lateral hind flanks subcutaneously. Mice were injected with 100 ng of pertussis toxin (List Biological Laboratories, Campbell, Calif.) intraperitonealy on the day of immunization and 2 days later (Srinivasan et al., (2002) J Immunol, 169(4):2180-8).
As opposed to the B10.PL mice which often develop monophasic EAE, PLP139-151 immunized SJL/J mice develop relapsing remitting form of EAE (R-EAE) (Dudhgaonkar et al. (2009) J Immunol, 183(11):7505-13). Groups of SJL/J mice were induced EAE as described above. Animals were observed daily for clinical signs and scored as follows: 0, no clinical signs; 1, limp tail or waddling gait with tail tonicity; 2, waddling gait with limp tail (ataxia); 2.5, ataxia with partial paralysis of one limb; 3, partial hind-limb paralysis; 3.5, full paralysis of one limb with partial paralysis of the second limb; 4, full paralysis of two limbs; 4.5 moribund; and 5, death (1, 8). […] A group of mice received the GILZ peptide:Pep-1 complex on day 12 post-immunization. Groups of mice treated with PBS (vehicle) or Pep-1 alone were included as control.
A group of mice received the GILZ-P•Pep-1 complex 12 days post-immunization. rh-GILZ was used to evaluate the effect in R-EAE.

T-bet and GATA-3 mRNA = assay: Real time PCR for T-bet and GATA-3 in CD4+ LNC restimulated in vitro; type: cell-based, mouse; conditions: CD4+ LNC restimulated in vitro with PLP139-151
Procedure: Intracellular delivery of r-GILZ was detected using […]-labeled anti-DDK mAb in permeabilized cells and measured by FACS Calibur. […] The delivery efficiency was assessed by mean fluorescence intensity (D). […] (F)-(I) show supernatants collected at 48 h were assessed for IFN-γ (F), IL-12 (G), IL-17 (H), and IL-10 (I) by ELISA. […] Five micrograms of nuclear extracts were tested for binding of the activated p65 NF-κB subunit to an NF-κB consensus sequence using the TransAM NF-κB ELISA kit. The p65 DNA binding activity was calculated as the ratio of absorbance from PLP139-151-stimulated cells to that of unstimulated cells. Values are the average±S.D. performed 3 times in duplicate. (K)-(L) show real time PCR for T-bet (K) and GATA-3 (L) was performed using 50 ng of cDNA isolated from CD4+LNC of R-EAE mice re-stimulated in vitro with PLP139-151 under the indicated conditions.
Proliferative responses of CD4+ lymph node cells and splenocytes harvested 10 days post-induction upon re-stimulation in vitro with PLP^139-151 in the presence or absence of chariot peptide complexed with purified GILZ protein and/or GILZ mimetics at varying concentrations is determined as described. IL-2, TNF-α, IFN-γ, IL12-p40, IL-17, IL-4, IL-5, IL-10 and TGF-β) of the cells following similar in vitro restimulation is determined by ELISA. Measurement of relative quantities of Th1 and Th2 specific transcription factors is determined by real time PCR using ABI primers.

[3] = Example 1, LNC 45 days post-immunization, PLP139-151 and/or MBP87-99, vs vehicle/control peptide
[4] = Example 1, LNC 45 days post-immunization, PLP139-151 or MBP87-99, vs vehicle/control peptide
[5] = MBP87-99 stimulation, mice treated on day 0
[6] = PLP139-151 re-stimulation, mice treated on day 0
[7] = mice treated 12 days post-immunization
[8] = Example 1, entire period of observation
[9] = Example 1, i.p. on day 0 with Pep-1, peptides 500 μg, r-GILZ 2 ng, n=4/group
[10] = Example 2, single i.p. dose on day 0 with Pep-1, peptides 500 μg, r-GILZ 2 ng, n=9/group

Substance | IFN-γ secretion [1] | IL-10 secretion [1] | IL-12 secretion [1] | IL-17 secretion [1] | cytokine secretion (INF-γ and IL-12p40) by in-vivo primed T cells [1] | IL-10 secretion [2, 3] | IFN-γ secretion [2, 4] | IL-12 secretion [2, 4] | TNF-α secretion [2, 4] | IL-10 secretion [2, 5] [pg/mL] | TGF-β secretion [2, 5] [pg/mL] | IFN-γ secretion [2, 6] [pg/mL] | IL-12 secretion [2, 6] [pg/mL] | IL-17 secretion [2, 6] [pg/mL] | clinical relapse after initial remission (R-EAE in SJL/J mice; [8]) | mean clinical score (severity of clinical disease) (R-EAE in SJL/J mice; [9]) | clinical relapse after initial remission (R-EAE in SJL/J mice; Example 2) | mean total clinical score (R-EAE in SJL/J mice; [10]) | average clinical score per day, in words (R-EAE in SJL/J mice; Example 2, vs control groups) | GATA-3 mRNA (T-bet and GATA-3 mRNA) | further results
Ac-CLSPEEPAPESPQVPEAPGGSAV-NH2 [GILZ-P] | significantly lower | elevated | significantly lower | significantly lower | suppresses | higher | significantly reduced | significantly reduced | significantly reduced | 1850.8 ± 90 | 33.31 ± 4 | 96.5 ± 7.1 | 12.7 ± 0.47 | 10.85 ± 0.3 | exhibited no relapse | 0.56+/−0.21 | exhibited minimal relapse | 2.25±0.72 | significantly lower | elevated | IFN-γ secretion ([1]; listed as GILZ-peptide): significantly decreased; IL-12 secretion ([1]; listed as GILZ-peptide): significantly decreased; IFN-γ secretion [2, 5]: 97.4 ± 6.9 pg/mL; IL-12 secretion [2, 5]: 28.4 ± 1.6 pg/mL; IL-17 secretion [2, 5]: 10.43 ± 0.4 pg/mL; IL-10 secretion ([2]; PLP139-151 stimulation, mice treated on day 0): 2316 ± 52.9 pg/mL; IL-12 secretion, in words [2, 7]: significantly lower; reduction in IFN-γ, in words [2, 7]: not significant; mean clinical score (severity of clinical disease) (R-EAE in SJL/J mice; Example 1, GILZ peptide 500 μg i.p. on day 12 post-induction): 1.78+/−1.01; average clinical score per day, in words (R-EAE in SJL/J mice; Example 1, day 0/day 12 treatment vs control groups, listed as GILZ peptide): significantly reduced scores; average clinical score per day, in words (R-EAE in SJL/J mice; Example 1, day 0/day 12 treatment vs control groups, listed as GILZ-peptide): significantly lower; mean total clinical score (R-EAE in SJL/J mice; Example 2, Pep-1•GILZ-P single dose on day 12): 15.75±4.85; T-bet mRNA (T-bet and GATA-3 mRNA): significantly decreased; GATA-3 mRNA (T-bet and GATA-3 mRNA; listed as GILZ-peptide): up-regulated; T-bet mRNA (T-bet and GATA-3 mRNA; listed as GILZ-peptide): down-regulated
r-GILZ: recombinant glucocorticoid induced leucine zipper protein (Abnova; OriGene with C-terminal DDK) | significantly decreased; also recorded: significantly lower | elevated | significantly decreased; also recorded: significantly lower | significantly lower | suppresses | higher | significantly reduced | significantly reduced | significantly reduced | 1667 ± 63.7 | 31.7 ± 0.8 | 100.5 ± 6.8 | 22.5 ± 01.05 | 10.66 ± 0.2 | exhibited no relapse | 0.17+/−0.14 | exhibited minimal relapse | 7.13±2.8 | significantly lower | up-regulated; also recorded: elevated | average clinical score per day, in words (R-EAE in SJL/J mice; Example 1, day 0/day 12 treatment vs control groups): significantly reduced scores; also recorded: significantly lower; T-bet mRNA (T-bet and GATA-3 mRNA): down-regulated; also recorded: significantly decreased
